In patent publication US10226453B2, “3-(1H-indol-2-yl)-1H-pyrazolo[4,3-B]pyridines and therapeutic uses thereof” (Samumed, LLC, priority 2015, dated 2019):

Columns and labels:
SW480 colon cancer cells = test: Cell viability assay (CellTiter-Blue), SW480 colon cancer cells; assay type: cell-based; details: Homo sapiens, 96 h, four days; for EC50: CellTiter-Blue; for inhibition at 10 µM: given where EC50 >10 μM, read-out: percent inhibition at 10 μM
Summary of the method: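 SW480 cells (~2×10^3/well) exposed four days at 37 °C to 8-point 1:3 dilutions, 10 μM down to 0.0045 μM. Viability from resazurin reduction (CellTiter-Blue, ~3 h, Ex 560/Em 590); EC50 by non-linear regression, or percent inhibition at 10 μM where EC50 exceeds 10 μM.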

[1] = tested on: primary human mesenchymal stem cells (hMSCs); test: Induction of chondrogenesis in primary human mesenchymal stem cells (hMSCs), nodule count; assay type: cell-based; details: 144 h, 6 days; for EC50: concentration required to induce 50% levels of chondrogenesis of TGF-β3 control, read-out: Conc (nM) of 50% TGF-β3 activity; for Emax: relative to TGF-β3 (10 ng/mL) positive control, read-out: Max. Activity as % TGF-β3 activity
Description: Representative compounds were screened using primary human mesenchymal stem cells (hMSCs) to determine their ability to induce chondrogenesis (process by which cartilage is developed).
Primary human mesenchymal stem cells (hMSCs) were purchased from Lonza (Walkersville, Md.) and expanded in Mesenchymal Stem Cell Growth Media (Lonza). Cells between passage 3 and 6 were used for the experiments.
Each compound was dissolved in DMSO as a 10 mM stock and used to prepare compound source plates. Serial dilution (1:3, 6-point dose-response curves from 2700 nM to 10 nM) and compound transfer was performed using the ECHO 550 (Labcyte, Sunnyvale, Calif.) into 96-well clear bottom assay plates (Greiner Bio-One) with appropriate DMSO backfill for a final DMSO concentration of 0.03%. hMSCs were plated at 20,000 cells/well in 250 μL/well Incomplete Chondrogenic Induction Medium (Lonza; DMEM, dexamethasone, ascorbate, insulin-transferrin-selenium [ITS supplement], gentamycin-amphotericin [GA-1000], sodium pyruvate, proline and L-glutamine). TGF-β3 (10 ng/mL) was used as a positive control for differentiation while negative control wells were treated with 75 nL DMSO for normalization and calculating EC50 values. Cells were incubated at 37° C. and 5% CO2 for 6 days. To image chondrogenic nodules, the cells were fixed using 4% formaldehyde (Electron Microscopy Sciences), and stained with 2 μg/mL Rhodamine B (Sigma-Aldrich) and 20 μM Nile Red (Sigma-Aldrich) [Johnson K., et. al, A Stem Cell-Based Approach to Cartilage Repair, Science, (2012). 336(6082), 717-721]. The nodules imaged (4 images per well at 4× magnification) by excitation at 531 nm and emission at 625 nm and quantified using the CellInsight CX5 (Thermo Scientific). Number of nodules in each well was normalized to the average of 3 DMSO treated wells on the same plate using Excel (Microsoft Inc.). The normalized averages (fold change over DMSO) of 3 replicate wells for each compound concentration were calculated. Due to solubility limitations of some of the compounds, curve fitting was incomplete leading to inaccurate EC50 determinations.
Using TGF-β3 as a positive control, the concentration of representative compounds required to induce 50% levels of chondrogenesis is reported. In addition, the maximum activity of each compound and the respective dose that each compound reached maximum chondrogenesis activity is reported.

Row | Structure (SMILES) | EC50 (SW480 colon cancer cells) [µM] | inhibition at 10 µM (SW480 colon cancer cells) [%] | EC50 [1] [nM] | Emax [1] [%]
1 | CC(C)(C)C(=O)Nc1cncc(-c2ccc3[nH]nc(-c4cc5c(-c6cccc(F)c6)cccc5[nH]4)c3n2)c1 [Compound 8, N-(5-(3-(4-(3-Fluorophenyl)-1H-indol-2-yl)-1H-pyrazolo[4,3-b]pyridin-5-yl)pyridin-3-yl)pivalamide] | > 10 | 20.9 |  | 
2 | CN(C)Cc1cncc(-c2ccc3[nH]nc(-c4cc5c(-c6ccc(F)cc6)cccc5[nH]4)c3n2)c1 [Compound 41, 1-(5-(3-(4-(4-Fluorophenyl)-1H-indol-2-yl)-1H-pyrazolo[4,3-b]pyridin-5-yl)pyridin-3-yl)-N,N-dimethylmethanamine] | 1.68 |  | 10 | 93
3 | Fc1ccc(-c2cccc3[nH]c(-c4n[nH]c5ccc(-c6cncnc6)nc45)cc23)cc1 [Compound 55, 3-(4-(4-Fluorophenyl)-1H-indol-2-yl)-5-(pyrimidin-5-yl)-1H-pyrazolo[4,3-b] pyridine] | > 10 | 18.5 |  | 
4 | Fc1ccccc1-c1cccc2[nH]c(-c3n[nH]c4ccc(-c5cncc(CN6CCCCC6)c5)nc34)cc12 [Compound 71, 3-(4-(2-Fluorophenyl)-1H-indol-2-yl)-5-(5-(piperidin-1-ylmethyl)pyridin-3-yl)-1H-pyrazolo[4,3-b]pyridine] | 1.06 |  | 100 | 96
5 | Fc1ccccc1-c1cccc2[nH]c(-c3n[nH]c4ccc(-c5cncc(CNCc6ccccc6)c5)nc34)cc12 [Compound 80, N-Benzyl-1-(5-(3-(4-(2-fluorophenyl)-1H-indol-2-yl)-1H-pyrazolo[4,3-b]pyridin-5-yl)pyridin-3-yl)methanamine] | > 10 | 18.5 |  | 
6 | c1cncc(-c2ccc3[nH]nc(-c4cc5c(-c6cccnc6)cccc5[nH]4)c3n2)c1 [Compound 88, 5-(Pyridin-3-yl)-3-(4-(pyridin-3-yl)-1H-indol-2-yl)-1H-pyrazolo[4,3-b] pyridine] | 0.775 |  | 900 | 386
7 | CN(C)Cc1cncc(-c2ccc3[nH]nc(-c4cc5c(-c6cccnc6)cccc5[nH]4)c3n2)c1 [Compound 97, N,N-Dimethyl-1-(5-(3-(4-(pyridin-3-yl)-1H-indol-2-yl)-1H-pyrazolo[4,3-b]pyridin-5-yl)pyridin-3-yl)methanamine] | 0.801 |  |  | 36
8 | Nc1cncc(-c2ccc3[nH]nc(-c4cc5c(-c6ccncc6)cccc5[nH]4)c3n2)c1 [Compound 115, 5-(3-(4-(Pyridin-4-yl)-1H-indol-2-yl)-1H-pyrazolo[4,3-b]pyridin-5-yl) pyridin-3-amine] | 0.218 |  | 900 | 165
9 | Cc1ccncc1-c1ccc2[nH]nc(-c3cc4c(-c5ccncc5)cccc4[nH]3)c2n1 [Compound 117, 5-(4-Methylpyridin-3-yl)-3-(4-(pyridin-4-yl)-1H-indol-2-yl)-1H-pyrazolo [4,3-b]pyridine] | 0.696 |  | 900 | 703
10 | c1cc(-c2ccncc2)c2cc(-c3n[nH]c4ccc(-c5cncc(CN6CCCCC6)c5)nc34)[nH]c2c1 [Compound 127, 5-(5-(Piperidin-1-ylmethyl)pyridin-3-yl)-3-(4-(pyridin-4-yl)-1H-indol-2-yl)-1H-pyrazolo[4,3-b]pyridine] | 1.92 |  | 2700 | 151
11 | c1cc(-c2ccncc2)c2cc(-c3n[nH]c4ccc(-c5cncc(CNCC6CCCC6)c5)nc34)[nH]c2c1 [Compound 137, 1-Cyclopentyl-N-((5-(3-(4-(pyridin-4-yl)-1H-indol-2-yl)-1H-pyrazolo[4,3-b]pyridin-5-yl)pyridin-3-yl)methyl)methanamine] | > 10 | 14.7 |  | 
12 | c1ccc(-c2ccc3[nH]nc(-c4cc5c(-c6ccncc6)cccc5[nH]4)c3n2)nc1 [Compound 140, 5-(Pyridin-2-yl)-3-(4-(pyridin-4-yl)-1H-indol-2-yl)-1H-pyrazolo[4,3-b] pyridine] | > 10 | 33.4 |  | 
13 | FC1(F)CCN(Cc2cncc(-c3ccc4[nH]nc(-c5cc6c(-c7ccccn7)cccc6[nH]5)c4n3)c2)C1 [Compound 166, 5-(5-((3,3-Difluoropyrrolidin-1-yl)methyl)pyridin-3-yl)-3-(4-(pyridin-2-yl)-1H-indol-2-yl)-1H-pyrazolo[4,3-b]pyridine] | 1.18 |  | 10 | 82
14 | c1ccc(-c2cccc3[nH]c(-c4n[nH]c5ccc(-c6cncnc6)nc45)cc23)nc1 [Compound 167, 3-(4-(Pyridin-2-yl)-1H-indol-2-yl)-5-(pyrimidin-5-yl)-1H-pyrazolo[4,3-b] pyridine] | > 10 | 13.8 |  | 41
15 | CCCCC(=O)Nc1cncc(-c2ccc3[nH]nc(-c4cc5c(N6CCCCC6)cccc5[nH]4)c3n2)c1 [Compound 187, N-(5-(3-(4-(Piperidin-1-yl)-1H-indol-2-yl)-1H-pyrazolo[4,3-b]pyridin-5-yl)pyridin-3-yl)pentanamide] | 4.44 |  | 100 | 69
16 | c1ccc(-c2ccc3[nH]nc(-c4cc5c(N6CCCCC6)cccc5[nH]4)c3n2)nc1 [Compound 196, 3-(4-(Piperidin-1-yl)-1H-indol-2-yl)-5-(pyridin-2-yl)-1H-pyrazolo[4,3-b] pyridine] | > 10 | 10.4 |  | 
17 | c1cncc(-c2ccc3[nH]nc(-c4cc5ccccc5[nH]4)c3n2)c1 [Compound 256, 3-(1H-Indol-2-yl)-5-(pyridin-3-yl)-1H-pyrazolo[4,3-b]pyridine] | > 10 | 37.6 |  | 
18 | FC1(F)CCN(Cc2cncc(-c3ccc4[nH]nc(-c5cc6c(-c7cccs7)cccc6[nH]5)c4n3)c2)C1 [Compound 362, 5-(5-((3,3-Difluoropyrrolidin-1-yl)methyl)pyridin-3-yl)-3-(4-(thiophen-2-yl)-1H-indol-2-yl)-1H-pyrazolo[4,3-b]pyridine] | > 10 | 15.3 |  | 
19 | Nc1cncc(-c2ccc3[nH]nc(-c4cc5ncccc5[nH]4)c3n2)c1 [Compound 507, 5-(3-(1H-Pyrrolo[3,2-b]pyridin-2-yl)-1H-pyrazolo[4,3-b]pyridin-5-yl) pyridin-3-amine] | 0.965 |  |  | 
20 | Fc1cccc(-c2cccc3[nH]c(-c4n[nH]c5ccc(-c6cncc(OCc7ccccc7)c6)nc45)cc23)c1 [Compound 546, 5-(5-(Benzyloxy)pyridin-3-yl)-3-(4-(3-fluorophenyl)-1H-indol-2-yl)-1H-pyrazolo[4,3-b]pyridine] | > 10 | 18.1 |  | 
21 | c1cc(-c2ccoc2)c2cc(-c3n[nH]c4ccc(-c5cn[nH]c5)nc34)[nH]c2c1 [Compound 711, 3-(4-(Furan-3-yl)-1H-indol-2-yl)-5-(1H-pyrazol-4-yl)-1H-pyrazolo[4,3-b] pyridine] | > 10 | 12.4 |  | 
22 | c1cc(-c2ccoc2)c2cc(-c3n[nH]c4ccc(-c5cncc(OC6CCCCC6)c5)nc34)[nH]c2c1 [Compound 715, 5-(5-(Cyclohexyloxy)pyridin-3-yl)-3-(4-(furan-3-yl)-1H-indol-2-yl)-1H-pyrazolo[4,3-b]pyridine] | > 10 | 10.4 |  | 
23 | Oc1cncc(-c2ccc3[nH]nc(-c4cc5c(-c6cccs6)cccc5[nH]4)c3n2)c1 [Compound 737, 5-(3-(4-(Thiophen-2-yl)-1H-indol-2-yl)-1H-pyrazolo[4,3-b]pyridin-5-yl) pyridin-3-ol] | > 10 | 0 |  | 
24 | c1cnc2cc(-c3n[nH]c4ccc(-c5cn[nH]c5)nc34)[nH]c2c1 [Compound 1021, 5-(1H-Pyrazol-4-yl)-3-(1H-pyrrolo[3,2-b]pyridin-2-yl)-1H-pyrazolo[4,3-b] pyridine] | 1.29 |  |  | 
25 | Oc1cncc(-c2ccc3[nH]nc(-c4cc5ncccc5[nH]4)c3n2)c1 [Compound 1031, 5-(3-(1H-Pyrrolo[3,2-b]pyridin-2-yl)-1H-pyrazolo[4,3-b]pyridin-5-yl) pyridin-3-ol] | 4.38 |  |  | 
